# Tests used:
# B16F10 cells = test: Subcutaneous B16F10 melanoma model; type: in vivo; settings: C57BL/6 mice, s.c.; bintrafusp alfa 492 μg i.v. days 0, 3, 6; niraparib 50 mg/kg p.o. QDx14; days 15/19; vs isotype control or monotherapies as stated
# Method: C57BLJ6 mice were inoculated subcutaneously with B16F10 cells (0.5×10^6) in the flank. […] Tumor volumes were measured twice weekly and presented as mean ±SEM or as individual tumor volumes. P-values were calculated by two-way ANOVA with Tukey's or Sidak's post-test.
# B16F10 cells were obtained from (ATCC) and were cultured in Dulbecco's Modified Eagle's medium (DMEM) supplemented with 10% fetal bovine serum (FBS). […] Cells were cultured under aseptic conditions and incubated at 37° C. with 5% CO2. Cells were passaged before in vivo implantation and adherent cells were harvested with TrypLE Express. […]
# (§1) Tumor sizes were measured twice per week with digital calipers and recorded automatically using WinWedge software. Tumor volumes were calculated with the following formula: tumor volume (mm^3)=tumor length×width×height×0.5236. Tumor growth inhibition (TGI) was calculated with the following formula: TGI (%)=[1−(Ti−T0)/(Vi−V0)]×100, where Ti is the average tumor volume (mm^3) of a treatment group on a given day, T0 is the average tumor volume of the treatment group on the first day of treatment, Vi is the average tumor volume of the vehicle control group on the same day as Ti, and V0 is the average tumor volume of the vehicle control group on the first day of treatment. […]
# RENCA cells = settings: BALB/c mice, day 12; bintrafusp alfa 492 μg i.v. days 0, 2, 5; niraparib 50 mg/kg p.o. days 0-11
# Method: BALB/c mice were inoculated orthotopically with RENCA cells (0.5×10^5) in the left kidney (day −6). […] Mice were euthanized at day 12 and both kidneys were weighed. The weight of the tumor bearing left kidney was divided by the weight of the bilateral right kidney to calculate the kidney mass ratio. Individual kidney mass ratios were plotted, with a line representing the median.
# The RENCA cells were obtained from ATCC (ATCC® CRL-2947™) and were cultured in RPMI-1640 with 10% heat inactivated fetal bovine serum and 0.1 mM non-essential amino acids. […] Cells were cultured under aseptic conditions and incubated at 37° C. with 5% CO2. […]
# as §1
# [1] = test system: MDA-MB-231 human breast cancer; test: MDA-MB-231 breast cancer model; type: in vivo; settings: NOD/SCID mice, s.c.; bintrafusp alfa 492 μg i.v. BiWx4; niraparib 50 mg/kg p.o. QDx28; day 41; vs isotype control or monotherapies as stated
# Method: NOD/SCID mice were subcutaneously inoculated with MDA-MB-231 cells (10×10^6) in the right flank (day −19). […] Tumor volumes were measured twice weekly and presented as mean ±SEM or as individual tumor volumes. P-values were calculated by two-way ANOVA with Tukey's post-test.
# MDA-MB-231 (BRCA-wt) cells were obtained from ATCC (ATCC® HTB-26™) and were cultured in Leibovitz's L-15 supplemented with 15% heat inactivated fetal bovine serum, 100 U/ml penicillin and 100 μg/ml streptomycin at 37° C. in an atmosphere of 5% CO2 in air. […] Cells were cultured under aseptic conditions and incubated at 37° C. with 5% CO2. Cells were passaged before in vivo implantation and adherent cells were harvested with TrypLE Express. […]
# as §1
# AT-3 cells = test: Orthotopic AT-3 breast cancer model; type: in vivo, C57BL/6 mice; settings: for median survival: isotype control 13 days; for responders (mice with tumor volumes<1 σ of the control group mean): day 13 post treatment start, n=10 mice/group
# Method: C57BL/6 mice were inoculated orthotopically with AT3 cells (0.5×10^6) in the mammary fat pad (day −11). […] Tumor volumes were measured twice weekly. In the lower plot, individual tumor volumes at day 13 are presented with a line representing the median tumor volume and error bars showing the 95% confidence intervals. […] P-values were calculated by two-way ANOVA with Tukey's post-test.
# AT-3 cells were obtained from Sigma and were cultured in DMEM supplemented with 10% FBS, 1 mM sodium pyruvate, 2 mM non-essential amino acids, 15 mM HEPES, and 1×β-mercaptoethanol. […] Cells were cultured under aseptic conditions and incubated at 37° C. with 5% CO2. Cells were passaged before in vivo implantation and adherent cells were harvested with TrypLE Express.
# For the efficacy study, 0.5×10^6 AT-3 cells were inoculated orthotopically into the right lower mammary at pad of C57BL/6 mice on day −11. Treatment was initiated on day 0 when average tumor volume reached ˜50 mm^3. Mice were sacrificed when tumor volumes reached ˜1000 mm^3.
# Mice were randomized into treatment groups according to tumor volume on the day of treatment initiation (day 0).
# The isotype control is a mutated version of anti-PD-L1, which completely lacks PD-L1 binding. In tumor-bearing mice, bintrafusp alfa (492 μg) or isotype control (400 μg) were administered with an intravenous (i.v.) injection in 0.2 mL PBS.
# Radiation therapy (RT) was delivered at 8 Grey (Gy) on days 0-3.
# Tumor sizes were measured twice per week with digital calipers and recorded automatically using WinWedge software. Tumor volumes were calculated with the following formula: tumor volume (mm^3)=tumor length×width×height×0.5236. Tumor growth inhibition (TGI) was calculated with the following formula: TGI (%)=[1−(Ti−T0)/(Vi−V0)]×100, where Ti is the average tumor volume (mm^3) of a treatment group on a given day, T0 is the average tumor volume of the treatment group on the first day of treatment, Vi is the average tumor volume of the vehicle control group on the same day as Ti, and V0 is the average tumor volume of the vehicle control group on the first day of treatment. To compare the percentage survival between different treatment groups, Kaplan-Meier survival curves were generated. Body weight was measured twice weekly and mice were sacrificed when their tumor volume exceeded 2,500 mm^3 for s.c. and intramuscular tumors and 1,000 mm^3 for mammary orthotopic tumors.
# [2] = test system: MDA-MB-436 human breast cancer cell line; test: MDA-MB-436 breast cancer model; type: in vivo; settings: NOD/SCID mice, bintrafusp alfa 492 μg i.v. BiWx4, niraparib 35 mg/kg p.o. QDx28
# Method: NOD/SCID mice were inoculated with MDA-MB-436 cells (10×10^6) in the right flank (day −19). […] Tumor volumes were measured twice weekly and presented as mean ±SEM or as individual tumor volumes. P-values were calculated by two-way ANOVA with Tukey's or Sidak's post-test.
# MDA-MB-436 (BRCA1-mut) cells were obtained from American Type Culture Collection (ATCC® HTB-130™) and were cultured in RPMI-1640 supplemented with 10% heat inactivated fetal bovine serum, 100 U/ml penicillin and 100 μg/ml streptomycin at 37° C. in an atmosphere of 5% CO2 in air. […] Cells were cultured under aseptic conditions and incubated at 37° C. with 5% CO2. […]
# as §1
# [3] = test system: PARP activity in various cell lines; settings: cited from earlier work
Compound,"tumor growth (tumor volume), in words (B16F10 cells)",relative kidney tumor burden: ratio of mass of tumor bearing kidney to bilateral normal kidney (median) (RENCA cells),"tumor growth (tumor volume), in words [1]","tumor growth relative to isotype control or bintrafusp alfa monotherapy, in words (AT-3 cells; C57BL/6 mice, day 13, bintrafusp alfa 492 μg i.v. days 0, 3, 6, niraparib 50 mg/kg p.o. days 0-13)",median survival (AT-3 cells; C57BL/6 mice),responders (mice with tumor volumes<1 σ of the control group mean) (AT-3 cells),median time to disease progression after stopping treatment [2],"tumor growth (tumor volume), in words ([2]; vs isotype control or monotherapy as stated, days 41/69)",inhibitory concentration at 90% of control (1090) of PARP activity in cells ([3]; PARP activity stimulated by DNA damage caused by hydrogen peroxide),"IC50 ([3]; read-out: IC50 of PARP activity in cells, PARP activity stimulated by DNA damage caused by hydrogen peroxide)"
bintrafusp alfa: anti-PD-L1:TGFβRII fusion protein; human IgG1 antibody against PD-L1 fused to extracellular domain of human TGF-β receptor II; SEQ ID NO: 7 and 8,neither bintrafusp alfa nor niraparib monotherapies significantly reduced tumor growth,3.74,significantly reduced tumor growth,did not significantly reduce tumor growth,13 days,1/10,–,–,–,–
"NC(=O)c1cccc2cn(-c3ccc([C@@H]4CCCNC4)cc3)nc12 [niraparib, (3S)-3-[4-{7-(aminocarbonyl)-2H-indazol-2-yl}phenyl]piperidine]",neither bintrafusp alfa nor niraparib monotherapies significantly reduced tumor growth,–,significantly reduced tumor growth,–,13 days,5/10,42.5 days,significantly inhibited tumor growth,~50 nM,~4 nM

# From patent US20230372319A1, “Combination Treatment of Cancer” (Ares Trading S.A., priority 2020, published 2023)
